From patent US20220381784A1, “SYSTEMS COMPRISING SUBSTRATES AND METHODS OF USING THE SAME FOR DETECTION OF PANCREATIC CANCERS” (THE REGENTS OF THE UNIVERSITY OF CALIFORNIA, priority 2019, published 2022)
Square brackets hold non-standard residues; d marks the D form. Peptide text beside a SMILES is read from it. * marks the point of attachment. Sta = CC(C)C[C@H](N)[C@@H](O)CC(=O)O; Isovaleryl = CC(C)CC(=O)*; CH2Cl = ClC*

Legend:
[1] = tested on: tri-amino peptidase activity in mucinous cyst fluid; test: MSP-MS assay of mucinous cyst fluid with protease inhibitors; assay type: biochemical, human; details: 2 μmol/L pepstatin; for effect on tri-amino peptidase activity (cleavage after third amino acid): pH 3.5, 10 μmol/L AAF-CMK
Procedure: The MSP-MS assay was performed as described previously (Ivry et al., 2017; O'Donoghue et al., 2012). Cyst fluid protein concentration was first determined through the BCA assay (Thermo Fisher, 23225). Cyst fluid samples were then diluted to 100 μg/mL in pH 3.5 acetate buffer or pH 7.5 phosphate buffer. The 228 tetradecapeptide was split into two pools of 114 peptides each and diluted to 1 μmol/L in either acetate or phosphate buffer. Equal volumes of diluted cyst fluid and peptide pools were combined and incubated at room temperature. After 15 and 60 minutes, 30 μL aliquots were removed and protease activity was quenched with 8 mol/L guanidinium hydrochloride. Aliquots were then desalted using C18 tips (Rainin). The following inhibitors were included in specified MSP-MS assays: 1 mmol/L AEBSF (Sigma, A8456), 2 mmol/L E64 (Sigma, E3132), 2 μmol/L pepstatin (Sigma, P5318), 2 mmol/L 1,10-phenanthroline (Sigma, 131337), and 10 μmol/L AAF-CMK (Enzo, BML-PI123).
Mass spectrometry analysis was performed with an LTQ Orbitrap XL Mass Spectrometer (Thermo Fisher) coupled to an Ultra Performance Liquid Chromatography (UPLC) System (Waters). Peptides were separated over a C18 column (Thermo Fisher, ES800) with a 65-minute linear gradient from 2%-30% acetonitrile. MS spectra were acquired over an m/z range of 325-1,500 and MS/MS spectra were obtained for the six most intense precursor ions by collision-induced dissociation (CID). Peak lists were generated using MSConvert and searched in Protein Prospector v. 5.10.0 against a database containing the sequences from the 228 tetradecapeptide library. Searches used a mass tolerance of 20 ppm for precursors and 0.8 Da for fragments. The following variable modifications were allowed: N-terminal pyroglutamate conversion from glutamine or glutamate and oxidation of tryptophan, proline, and tyrosine. Search outputs were then processed using the MSP-xtractor software (http://www.craiklab.ucsfedu/extractor.html). […] Spectral counts were used for relative quantification of MSP-MS results.

[2] = biological target: most rapidly cleaved internally quenched fluorescent TPP1 substrate (P3 to P4' sequence from the MSP-MS library, lysine-fluorophore in P1)

| number of detected peptide cleavages at other positions enriched in mucinous cysts (B6, B8, B9, B10) ([1]; acidic pH) | Molecule | effect on tri-amino peptidase activity (cleavage after third amino acid) [1] | kcat/Km (cleavage of internally quenched fluorescent substrate, fluorescence assay, pH 4.5) [2] |
| --- | --- | --- | --- |
|  | C[C@H](N)C(=O)N[C@@H](C)C(=O)N[C@@H](Cc1ccccc1)C(=O)CCl [tripeptide chloromethylketone inhibitor, Ala-Ala-Phe-chloromethylketone] (H-Ala-Ala-Phe-CH2Cl) | almost completely ablated |  |
| decrease | CC(C)CC(=O)N[C@H](C(=O)N[C@H](C(=O)N[C@@H](CC(C)C)[C@@H](O)CC(=O)N[C@@H](C)C(=O)N[C@@H](CC(C)C)[C@@H](O)CC(=O)O)C(C)C)C(C)C [pepstatin] (Isovaleryl-VV[Sta]A[Sta]-OH) | not inhibited |  |
|  | recombinant tripeptidyl peptidase 1 (TPP1) (protein) LHLGVTPSVIRKRYNLTSQDVGSGTSNNSQACAQFLEQYFHDSDLAQFMRLFGGNFAHQASVARVVGQQGRGRAGIEASLDVQYLMSAGANISTWVYSSPGRHEGQEPFLQWLMLLSNESALPHVHTVSYGDDEDSLSSAYIQRVNTELMKAAARGLTLLFASGDSGAGCWSVSGRHQFRPTFPASSPYVTTVGGTSFQEPFLITNEIVDYISGGGFSNVFPRPSYQEEAVTKFLSSSPHLPPSSYFNASGRAYPDVAALSDGYWVVSNRVPIPWVSGTSASTPVFGGILSLINEHRILSGRPPLGFLNPRLYQQHGAGLFDVTRGCHESCLDEEVEGQGFCSGPGWDPVTGWGTPNFPALLKTLLNP |  | kcat/Km of 2.5 µmol^-1s^-1 |
